Key:
Pyruvate kinase PKM [1] = biological target: T1, Pyruvate kinase PKM (Homo sapiens, UniProt P14618); assay: Activation of PKM2 (unknown origin) assessed as PEP conversion to pyruvate measured as concentration required for 50% activation by luminescence assay
Target sequence in this assay (P14618 whole entry): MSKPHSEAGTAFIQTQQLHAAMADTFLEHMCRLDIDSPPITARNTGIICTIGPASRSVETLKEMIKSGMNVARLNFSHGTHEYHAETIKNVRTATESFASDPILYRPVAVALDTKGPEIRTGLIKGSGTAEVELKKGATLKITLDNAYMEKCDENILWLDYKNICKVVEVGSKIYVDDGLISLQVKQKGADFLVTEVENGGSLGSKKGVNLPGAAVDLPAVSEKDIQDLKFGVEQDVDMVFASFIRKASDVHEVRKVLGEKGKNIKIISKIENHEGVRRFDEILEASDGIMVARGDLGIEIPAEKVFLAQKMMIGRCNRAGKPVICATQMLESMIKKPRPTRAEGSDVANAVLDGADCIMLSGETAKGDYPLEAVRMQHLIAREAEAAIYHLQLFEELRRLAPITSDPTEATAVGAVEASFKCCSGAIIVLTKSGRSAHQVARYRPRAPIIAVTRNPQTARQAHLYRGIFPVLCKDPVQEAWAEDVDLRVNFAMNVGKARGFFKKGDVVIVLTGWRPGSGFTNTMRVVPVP

Pyruvate kinase PKM [2] = biological target: T1, Pyruvate kinase PKM; assay: Activation of PKM2 in human A549 cells; type: cell-based
Target sequence in this assay (P14618 2-531 limits assumed): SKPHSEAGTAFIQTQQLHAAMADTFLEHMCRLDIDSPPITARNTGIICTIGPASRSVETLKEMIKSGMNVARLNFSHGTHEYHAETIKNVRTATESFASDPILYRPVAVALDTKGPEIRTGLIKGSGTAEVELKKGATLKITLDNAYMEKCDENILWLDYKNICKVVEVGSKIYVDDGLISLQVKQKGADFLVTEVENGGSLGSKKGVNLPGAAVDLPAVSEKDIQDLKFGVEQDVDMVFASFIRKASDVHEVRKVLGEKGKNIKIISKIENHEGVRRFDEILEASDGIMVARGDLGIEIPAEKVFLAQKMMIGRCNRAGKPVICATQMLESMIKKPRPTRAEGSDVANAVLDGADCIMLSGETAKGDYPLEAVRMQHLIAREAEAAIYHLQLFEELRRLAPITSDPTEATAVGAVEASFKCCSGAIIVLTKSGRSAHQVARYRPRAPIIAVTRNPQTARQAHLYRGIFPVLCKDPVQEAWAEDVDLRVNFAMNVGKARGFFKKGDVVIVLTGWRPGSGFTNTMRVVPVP

Pyruvate kinase PKM [3] = biological target: T1, Pyruvate kinase PKM; assay: Activation of PKM2 in human NCI-H1299 cells; type: cell-based
Target sequence in this assay (P14618 2-531 limits assumed): as above

**Q.** Which AC50 (Pyruvate kinase PKM [1]; read-out: AC50) does the source give for CCCCCN(Cc1ccccc1)C(=O)c1cc(Br)c[nH]1 here?
**A.** 4.45 µM

**Q.** O=C(c1cc(Br)c[nH]1)N(Cc1ccc(O)cc1)CC1CCC1 was tested. Which AC50 (Pyruvate kinase PKM [1]; read-out: AC50) did it give?
**A.** 1.71 µM

**Q.** How did the AC50 (Pyruvate kinase PKM [1]; read-out: AC50) turn out when O=C(c1cc(Br)c[nH]1)N(Cc1ccc(F)cc1)CC1CCC1 was run?
**A.** 12.1 µM

**Q.** For CCCN(Cc1ccccc1)C(=O)c1cc(Br)c[nH]1, which AC50 (Pyruvate kinase PKM [1]; read-out: AC50) is on record?
**A.** 6 µM

**Q.** With O=C(c1cc(Br)c[nH]1)N(Cc1ccc(Cl)cc1)CC1CCC1 as the compound, how does the AC50 (Pyruvate kinase PKM [1]) read?
**A.** Not Active

**Q.** With O=C(c1cc(Br)c[nH]1)N(Cc1ccccc1O)CC1CCC1 as the compound, how does the AC50 (Pyruvate kinase PKM [1]; read-out: AC50) read?
**A.** 1.29 µM

**Q.** Which AC50 (Pyruvate kinase PKM [1]; read-out: AC50) does the source give for N#Cc1cc(C(=O)N(Cc2ccc(O)cc2F)CC2CCC2)[nH]n1 here?
**A.** 4.47 µM

**Q.** Nc1ccc(CN(CC2CCC2)C(=O)c2cc(Br)c[nH]2)cc1 was tested. Which AC50 (Pyruvate kinase PKM [1]) did it give?
**A.** Not Active

**Q.** How did the Activity (Pyruvate kinase PKM [2]) turn out when O=C(c1cc(Br)n[nH]1)N(Cc1cccc2[nH]cnc12)CC1CCC1 was run?
**A.** 1.99 µM

**Q.** And the Activity (Pyruvate kinase PKM [3])?
**A.** 1.42 µM

**Q.** Which AC50 (Pyruvate kinase PKM [1]; read-out: AC50) does the source give for O=C(c1cc(Br)c[nH]1)N(Cc1ccccc1F)CC1CCC1 here?
**A.** 3.9 µM

**Q.** For O=C(NCc1ccccc1)c1cc(Br)c[nH]1, which AC50 (Pyruvate kinase PKM [1]; read-out: AC50) is on record?
**A.** 36 µM

**Q.** For O=C(c1cc(Br)n[nH]1)N(Cc1cccc2[nH]ncc12)CC1CCC1, which AC50 (Pyruvate kinase PKM [1]; read-out: AC50) is on record?
**A.** 3.13 µM

**Q.** Which AC50 (Pyruvate kinase PKM [1]) does the source give for CCN(Cc1ccccc1)C(=O)c1cc(Br)c[nH]1 here?
**A.** Not Active

**Q.** Which AC50 (Pyruvate kinase PKM [1]; read-out: AC50) does the source give for O=C(c1cc(Br)c[nH]1)N(Cc1cccc(F)c1)CC1CCC1 here?
**A.** 3.85 µM

**Q.** With O=C(c1cc(Br)c[nH]1)N(Cc1ccccc1)CC1CC1 as the compound, how does the AC50 (Pyruvate kinase PKM [1]; read-out: AC50) read?
**A.** 12.2 µM

**Q.** Which AC50 (Pyruvate kinase PKM [1]; read-out: AC50) does the source give for O=C(c1cc(Br)n[nH]1)N(Cc1cccc2[nH]c(=O)sc12)CC1CCC1 here?
**A.** 3.05 µM

**Q.** And the Activity (Pyruvate kinase PKM [2])?
**A.** 12.9 µM

**Q.** And the Activity (Pyruvate kinase PKM [3])?
**A.** 16.6 µM

**Q.** Which AC50 (Pyruvate kinase PKM [1]; read-out: AC50) does the source give for O=C(c1cc(Cl)n[nH]1)N(Cc1cccc2[nH]ccc12)CC1CCC1 here?
**A.** 0.757 µM

**Q.** And the Activity (Pyruvate kinase PKM [2])?
**A.** 6.73 µM

**Q.** N#Cc1ccc(CN(CC2CCC2)C(=O)c2cc(Br)c[nH]2)cc1 was tested. Which AC50 (Pyruvate kinase PKM [1]) did it give?
**A.** Not Active

**Q.** How did the AC50 (Pyruvate kinase PKM [1]) turn out when O=C(c1cc(Br)c[nH]1)N(Cc1ccccc1)CC1CCCCC1 was run?
**A.** Not Active

**Q.** For Nc1cc(C(=O)N(Cc2ccc(O)cc2F)CC2CCC2)[nH]n1, which AC50 (Pyruvate kinase PKM [1]; read-out: AC50) is on record?
**A.** > 30 µM

**Q.** For O=C(c1cc(Br)n[nH]1)N(Cc1ccc(O)cc1F)CC1CCC1, which AC50 (Pyruvate kinase PKM [1]; read-out: AC50) is on record?
**A.** 0.034 µM

**Q.** And the Activity (Pyruvate kinase PKM [2])?
**A.** 0.06 µM

**Q.** And the Activity (Pyruvate kinase PKM [3])?
**A.** 0.055 µM

**Q.** With CCCCN(Cc1ccccc1)C(=O)c1cc(Br)c[nH]1 as the compound, how does the AC50 (Pyruvate kinase PKM [1]; read-out: AC50) read?
**A.** 6.33 µM

**Q.** For O=C(c1cc(Br)c[nH]1)N(Cc1cccc(O)c1)CC1CCC1, which AC50 (Pyruvate kinase PKM [1]; read-out: AC50) is on record?
**A.** 3.03 µM

**Q.** O=C(c1cc(Br)c[nH]1)N(Cc1ccccc1)CC1CCC1 was tested. Which AC50 (Pyruvate kinase PKM [1]; read-out: AC50) did it give?
**A.** 2.3 µM

**Q.** How did the Activity (Pyruvate kinase PKM [2]) turn out when O=C(c1cc(Cl)n[nH]1)N(Cc1ccc(O)cc1F)CC1CCC1 was run?
**A.** 0.45 µM

**Q.** What about the Activity (Pyruvate kinase PKM [3]) of the same compound?
**A.** 0.3 µM

**Q.** For O=C(c1cc(Br)c[nH]1)N(Cc1ccccc1)CC1CCCC1, which AC50 (Pyruvate kinase PKM [1]) is on record?
**A.** Not Active

**Q.** How did the AC50 (Pyruvate kinase PKM [1]; read-out: AC50) turn out when O=C(c1cc(Br)c[nH]1)N(Cc1ccc(O)cc1F)CC1CCC1 was run?
**A.** 0.75 µM

**Q.** Which results are given for O=C(c1cc(Cl)n[nH]1)N(Cc1cccc2[nH]ncc12)CC1CCC1?
**A.** AC50 (Pyruvate kinase PKM [1]; read-out: AC50): 2.93 µM; Activity (Pyruvate kinase PKM [2]): 5.94 µM; Activity (Pyruvate kinase PKM [3]): 6.4 µM

**Q.** For COc1ccc(CN(CC2CCC2)C(=O)c2cc(Br)c[nH]2)cc1, which AC50 (Pyruvate kinase PKM [1]) is on record?
**A.** Not Active

**Q.** Which Activity (Pyruvate kinase PKM [2]) does the source give for O=C(c1cc(C(F)(F)F)n[nH]1)N(Cc1ccc(O)cc1F)CC1CCC1 here?
**A.** 0.26 µM

**Q.** And the Activity (Pyruvate kinase PKM [3])?
**A.** 0.22 µM

**Q.** What does the source list for O=C(c1cc(C(F)(F)F)n[nH]1)N(Cc1cccc2[nH]ccc12)CC1CCC1?
**A.** Activity (Pyruvate kinase PKM [2]): 0.308 µM; Activity (Pyruvate kinase PKM [3]): 0.364 µM
